This assay relates to women of child-bearing ages. Description: Evaluation of improvement in premenstrual syndrome and menstrual pain by questionnaire before and after about 4 weeks of oral tablets. Type of assay: in vivo, human. The source says: The American Psychiatric Association presents the following diagnosis standard for premenstrual syndrome.
According to the standard, women who satisfy at least 5 of the following 11 items and at least one of the first 4 items were selected for test.
(1) Quick change in emotion; sudden sadness, anger or rage
(2) Persistent severe anger and uneasiness
(3) Uneasiness and tension
(4) Depression and hopelessness
(5) Disinterest in daily lives
(6) Fatigue or low energy
(10) Difficulty in emotion control
(11) Breast tenderness, headache, edema, muscle or joint pain and weight gain
For the test, 350 mg tablets containing 100 wt % of the ginseng fruit extract of
A table top tablet making machine (Erweka, Germany) was used.
40 women were selected from 48 women of child-bearing ages (in their 20s to 50s) according to the diagnosis standard. They were divided into 4 groups: i.e., unadministered group, red ginseng group, ginsenoside Re group, and ginseng fruit group. Each group was composed of 10 subjects.
The red ginseng group was asked to take the red ginseng-containing tablets for 4 weeks, twice a day, two tablets once. That is to say, 1400 mg/day of red ginseng extract was administered to them.
The ginsenoside Re group was asked to take tablets containing ginsenoside Re as an active ingredient twice a day, two tablets once. […] The content of ginsenoside Re was determined based on the analysis result shown in FIG. 1 for comparison of the effect of improving premenstrual syndrome and menstrual pain of ginseng fruit extract and only ginsenoside Re contained therein.
The ginseng fruit group was asked to take the ginseng fruit extract-containing tablets for 4 weeks, twice a day, two tablets once. That is to say, 1400 mg/day of ginseng fruit extract was administered to them.
The 40 women were asked to answer questionnaires first after menstruation and, after the administration of nothing, the red ginseng extract or the ginseng fruit extract, to answer questionnaires after the next menstruation was over (about 4 weeks later). The improvement in the symptoms of premenstrual syndrome was evaluated by monitoring the change in total scores based on the questionnaires. One point was given for each item.

Setting [1] is: group total, n = 10 women, about 4 weeks, 1400 mg/day extract or 240 mg/day ginsenoside Re.
Where [2] appears, read: n = 10 per group, about 4 weeks, 1400 mg/day extract or 240 mg/day ginsenoside Re.

SMILES strings stand for the structures.

Turning to `CC(C)=CCC[C@](C)(O[C@@H]1O[C@H](CO)[C@@H](O)[C@H](O)[C@H]1O)[C@H]1CC[C@]2(C)[C@@H]1[C@H](O)C[C@@H]1[C@@]3(C)CC[C@H](O)C(C)(C)[C@@H]3[C@@H](O[C@@H]3O[C@H](CO)[C@@H](O)[C@H](O)[C@H]3O[C@@H]3O[C@@H](C)[C@H](O)[C@@H](O)[C@H]3O)C[C@]12C` [Ginsenoside Re, ginsenoside Re], under setting [1], the “Total score, difference (before minus after administration)” value is given as 9 and the “Total score, difference in percent of the score before administration” value worked out at 12%. Moreover, the “Total score (premenstrual syndrome questionnaire), after administration” value (group total, n = 10 women, after next menstruation (about 4 weeks), tablets twice a day, two tablets once: 1400 mg/day extract or 240 mg/day ginsenoside Re) is reported as 66. Further, the “Total score (premenstrual syndrome questionnaire), before administration” value (group total, n = 10 women, one point per item (11 items), questionnaire after menstruation, before administration) amounted to 75. Under setting [2], the “Number of women who felt the symptoms, difference (before minus after)” value is recorded as 2 and the “Number of women who felt the symptoms, difference in percent” value was found to be 20%. Further, the “Number of women who felt the symptoms of premenstrual syndrome, after administration” value (n = 10 per group, after about 4 weeks, 1400 mg/day extract or 240 mg/day ginsenoside Re) is listed as 8. The “Number of women who felt the symptoms of premenstrual syndrome, before administration” value (n = 10 per group, before administration) is reported as 10.

For the origin of these results see US10342836B2, “Composition having a function for alleviating premenstrual syndrome and menstrual pain” (AMOREPACIFIC CORPORATION, priority 2013, dated 2019).
